Values of other authors as cited in patent US8512972B2, “Crystal of hypoxia inducible factor 1 alpha prolyl hydroxylase” (Akebia Therapeutics, Inc., priority 2006, dated 2013).

Assays:
[1] = tested on: HIF protein in HT1080, PC12W and 3T3L1 cells; conditions: HT1080, PC12W and 3T3L1 cells in culture
HIF protein = conditions: administered to rats
[2] = tested on: GLUT1, heme oxygenase and nitric oxide synthase; conditions: neonatal rat cardiomyocytes

Row | Structure (SMILES) | induction of HIF protein [1] | HIF protein expression in the kidney (HIF protein) | expression of GLUT1, heme oxygenase and nitric oxide synthase [2]
1 | N[C@@H](Cn1ccc(=O)c(O)c1)C(=O)O [L-mimosine] | induce HIF protein | induced HIF protein expression | 
2 | COC(=O)CNC(=O)C(=O)OC [dimethyloxalylglycine] |  |  | induced the expression
3 | CCOC(=O)c1ccc(O)c(O)c1 [ethyl-3,4 dihydroxybenzoate] | induce HIF protein |  | induced the expression
